# Test results taken from patent US20040019430A1, “Methods and systems for analyzing complex biological systems” (priority 2001, published 2004).
# How the values were obtained:
# [1] = tested on: Saccharomyces cerevisiae wild type strain BY4743; test: AF1 metabolite analysis (GC-MS, LC-MS) of yeast cells treated with antifungal drugs; type: cell-based; design: Fold Change: scale not given here; settings: for # Compounds perturbed by treatment: yeast, 2x MIC, two hours
# [2] = tested on: Saccharomyces cerevisiae wild type strain BY4743; test: AF1 combined gene expression and metabolite data mapped to KEGG reactions and pathways; type: cell-based; settings: yeast AF1
# Source text: In AF1, two different technologies were utilized: gene expression analysis (for examination of mRNA expression) and metabolite analysis. […] As noted previously, existing metabolic databases may be helpful in practicing the methods and systems of the present invention, but many databases include limitations that make their use in data analysis and pathway mapping less than straightforward. […] This caveat to KEGG makes it difficult to pinpoint the correct pathway when attempting to link a gene to a specific pathway. […] The pathway score indicates how meaningful the mapping is, or how likely it is to be correctly indicative of the pathway involved in the perturbation under examination. The method provides a pathway score based on perturbation levels of genes and/or compounds and the information content of each gene and/or compound in the pathway, i.e., a pathway score indicates the extent to which other pathways are mapped to a gene/compound. For example, imagine that two genes are perturbed in a particular experiment. One gene maps to only one pathway, giving a high degree of probability that the perturbed pathway is the one identified in the mapping. The second gene maps to three pathways. In the later example, there is only one-third the probability that the pathway identified in the mapping is the one perturbed. The present invention provides a method for calculating the pathway scores, so that more weight is given to a score of a gene or compound that maps to only one pathway than to a score of a gene or compound that maps to multiple pathways. […] Where n=the total number of genes in the pathway; ipath—count=the number of pathways containing a gene; and j=the number of genes in the pathway that are perturbed. Another factor to be considered when weighting a pathway score is the degree of perturbation. Degree of perturbation can be calculated, for example, based on a number of standard deviations from a norm, and included in an equation such as the one shown above, so that not only the number of pathways is taken into account, but also accounts for the amount of gene transcript or compound present as compared to a control. Compounds were also linked to pathways using the KEGG database. KEGG links 676 compounds measured in AF1 to a total of 92 pathways. Of the 676 compounds under consideration, 77 were detected in the AF1 samples. […] The multiple mapping feature of KEGG makes it difficult to pinpoint the correct pathway when trying to link a compound to a specific pathway. […] A pathway score calculation is applied to the compounds to account for both information content (number of pathways a compound maps to) and perturbation level. The data were then combined to determine the number of reactions showing an enzyme and at least one compound perturbed, and to determine the number of pathways having at least one enzyme and one perturbed compound perturbed. The results of the analysis are represented in Tables 16 and 17, and were difficult to interpret, illustrating that the ability to draw conclusions from compound mapping to pathways is limited when absent additional data.
smiles,measurement,setting,value
C[C@@H]1[C@H](O)[C@@H](C)/C=C/C=C/C=C/C=C/C=C/C=C/C=C/[C@H](O[C@@H]2O[C@H](C)[C@@H](O)[C@H](N)[C@@H]2O)C[C@@H]2O[C@](O)(C[C@@H](O)C[C@@H](O)[C@H](O)CC[C@@H](O)C[C@@H](O)CC(=O)O[C@H]1C)C[C@H](O)[C@H]2C(=O)O [Amphoteracin B],# Compounds perturbed by treatment,[1]; P < 0.05,16
same,# Compounds perturbed by treatment,[1]; P < 0.1,21
same,Fold Change,"[1]; metabolite 3-indolylacetonitri, platform nLC",−0.9998
same,Fold Change,"[1]; metabolite 4-aminobenzoic acid, platform pLC",0
same,Fold Change,"[1]; metabolite 4-methylcatechol, platform nLC",0
same,Fold Change,"[1]; metabolite 4-methylcatechol, platform pLC",0
same,Fold Change,"[1]; metabolite 4ambutyrate/dimglyc, platform pLC",0.01279
same,Fold Change,"[1]; metabolite 4aminobutyrate/dimg, platform nLC",−0.1983
same,Fold Change,"[1]; metabolite DL-aminoadipic acid, platform pLC",0.4703
same,Fold Change,"[1]; metabolite DLaminoadipic acid, platform nLC",1.411
same,Fold Change,"[1]; metabolite NacetylD-glucosamine, platform nLC",0
same,Fold Change,"[1]; metabolite NacetylD-glucosamine, platform pLC",0
same,Fold Change,"[1]; metabolite NacetylL-glutamate, platform nLC",−0.1078
same,Fold Change,"[1]; metabolite NacetylL-glutamate, platform pLC",0
same,Fold Change,"[1]; metabolite NacetylL-ornithine, platform nLC",0
same,Fold Change,"[1]; metabolite NacetylL-ornithine, platform pLC",1.319
same,Fold Change,"[1]; metabolite decanoic acid, platform nLC",−0.08716
same,Fold Change,"[1]; metabolite desmosterol, platform GC",0
same,Fold Change,"[1]; metabolite diaminopimelic acid, platform nLC",0
same,Fold Change,"[1]; metabolite diaminopimelic acid, platform pLC",0
same,Fold Change,"[1]; metabolite dihydrofolic acid, platform nLC",0
same,Fold Change,"[1]; metabolite dihydrofolic acid, platform pLC",0
same,Fold Change,"[1]; metabolite dipicolinic acid, platform pLC",0
same,Fold Change,"[1]; metabolite disaccaride1, platform GC",−1
same,Fold Change,"[1]; metabolite disaccaride2, platform GC",−0.9977
same,Fold Change,"[1]; metabolite disaccaride3, platform GC",−0.9977
same,Fold Change,"[1]; metabolite ergosterol, platform GC",2.303
same,Fold Change,"[1]; metabolite estrone, platform nLC",0
same,Fold Change,"[1]; metabolite farnesol, platform nLC",0
same,Fold Change,"[1]; metabolite folic acid, platform nLC",0
same,Fold Change,"[1]; metabolite folic acid, platform pLC",0
same,Fold Change,"[1]; metabolite fucosterol, platform GC",−0.6553
same,Fold Change,"[1]; metabolite fumaric/3m2oxobutan, platform nLC",0.4423
same,Fold Change,"[1]; metabolite gallic acid, platform nLC",0.1622
same,Fold Change,"[1]; metabolite gibberellic, platform nLC",0
same,Fold Change,"[1]; metabolite glucosamine-6PO4, platform nLC",−0.9951
same,Fold Change,"[1]; metabolite glucosamine-6PO4, platform pLC",0
same,Fold Change,"[1]; metabolite glucosamine, platform pLC",0
same,Fold Change,"[1]; metabolite glutamate, platform pLC",0.4341
same,Fold Change,"[1]; metabolite glutamic/acetylseri, platform nLC",0.1414
same,Fold Change,"[1]; metabolite glutamine/lysine, platform nLC",0.07919
same,Fold Change,"[1]; metabolite glutamine/lysine, platform pLC",0.3981
same,Fold Change,"[1]; metabolite glutamine, platform GC",−0.9116
same,Fold Change,"[1]; metabolite glutathione, platform pLC",−0.03348
same,Fold Change,"[1]; metabolite glycanopyrose, platform GC",−0.958
same,Fold Change,"[1]; metabolite glycerol, platform GC",−0.815
same,Fold Change,"[1]; metabolite glycine, platform GC",0.8807
same,Fold Change,"[1]; metabolite guanine, platform nLC",0
same,Fold Change,"[1]; metabolite guanosine, platform nLC",1.131
same,Fold Change,"[1]; metabolite guanosine, platform pLC",0.7598
same,Fold Change,"[1]; metabolite hexadecanoic acid, platform GC",−0.2427
same,Fold Change,"[1]; metabolite histidine, platform nLC",0
same,Fold Change,"[1]; metabolite histidine, platform pLC",0
same,Fold Change,"[1]; metabolite homogentisic/uric, platform nLC",0
same,Fold Change,"[1]; metabolite hydrocortisone, platform nLC",0
same,Fold Change,"[1]; metabolite hydrocortisone, platform pLC",0
same,Fold Change,"[1]; metabolite hypoxanthine, platform nLC",0.1655
same,Fold Change,"[1]; metabolite hypoxanthine, platform pLC",0.2057
same,Fold Change,"[1]; metabolite indole3-pyruvic acid, platform nLC",0
same,Fold Change,"[1]; metabolite inostol/glucos/sorb, platform nLC",−0.5905
same,Fold Change,"[1]; metabolite iso citric acid, platform GC",−0.6183
same,Fold Change,"[1]; metabolite isocitric/citric/qu, platform nLC",2.549
same,Fold Change,"[1]; metabolite isoleucine, platform GC",−0.9533
same,Fold Change,"[1]; metabolite itaconic acid dimes, platform pLC",0
same,Fold Change,"[1]; metabolite jasmonic acid, platform nLC",0
same,Fold Change,"[1]; metabolite kinetin, platform nLC",0
same,Fold Change,"[1]; metabolite kinetin, platform pLC",0
same,Fold Change,"[1]; metabolite lactic acid, platform nLC",−0.02583
same,Fold Change,"[1]; metabolite lanosterol, platform GC",−1
same,Fold Change,"[1]; metabolite lauric acid, platform nLC",0.1225
same,Fold Change,"[1]; metabolite leucine/isoleucine/, platform nLC",0.1319
same,Fold Change,"[1]; metabolite leucine/isoleucine/, platform pLC",0.2746
same,Fold Change,"[1]; metabolite leucine, platform GC",−0.9443
same,Fold Change,"[1]; metabolite luteolin, platform nLC",0
same,Fold Change,"[1]; metabolite luteolin, platform pLC",0
same,Fold Change,"[1]; metabolite lysine, platform GC",−0.3925
same,Fold Change,"[1]; metabolite malic acid, platform GC",−0.963
same,Fold Change,"[1]; metabolite malic acid, platform nLC",0.6212
same,Fold Change,"[1]; metabolite malonic acid, platform nLC",0
same,Fold Change,"[1]; metabolite mannitol, platform pLC",0.4543
same,Fold Change,"[1]; metabolite menthol*, platform nLC",−0.07013
same,Fold Change,"[1]; metabolite methionine, platform nLC",0
same,Fold Change,"[1]; metabolite methionine, platform pLC",0.3299
same,Fold Change,"[1]; metabolite mevalonic acid lactone, platform GC",−0.1276
same,Fold Change,"[1]; metabolite mevalonic lactone, platform pLC",−0.4606
same,Fold Change,"[1]; metabolite niacinamide, platform pLC",0
same,Fold Change,"[1]; metabolite nicotinic acid, platform nLC",0.3131
same,Fold Change,"[1]; metabolite nicotinic acid, platform pLC",−0.9989
same,Fold Change,"[1]; metabolite nopaline, platform nLC",0.3342
same,Fold Change,"[1]; metabolite nopaline, platform pLC",0
same,Fold Change,"[1]; metabolite octadecanoic acid, platform GC",0.21
same,Fold Change,"[1]; metabolite oleic acid, platform GC",−0.4593
same,Fold Change,"[1]; metabolite oleic acid, platform nLC",0.689
same,Fold Change,"[1]; metabolite ornithine2, platform GC",−1
same,Fold Change,"[1]; metabolite ornithine3, platform GC",−0.9853
same,Fold Change,"[1]; metabolite ornithine, platform nLC",2.534
same,Fold Change,"[1]; metabolite ornithine, platform pLC",0.5049
same,Fold Change,"[1]; metabolite orotic acid, platform nLC",8380
same,Fold Change,"[1]; metabolite palmiteliadic acid, platform GC",0.515
same,Fold Change,"[1]; metabolite palmitic acid, platform nLC",0.3979
same,Fold Change,"[1]; metabolite phenylalanine, platform GC",−0.9797
same,Fold Change,"[1]; metabolite phenylalanine, platform nLC",−0.1906
same,# Reactions (title: Number Of Pathways Having at Least One Enzyme and One Compound Perturbed),[2],37
same,# Reactions having an enzyme and at least one compound perturbed,[2],54
